Laboratory results: PubChem BioAssay AID179 (DTP/NCI, 2004)
The source made the active and inactive calls.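 How the source made its calls: active means compounds giving half or more protection of infected cells from virus-caused growth loss, again on retest; inactive means the rest.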

System: CEM cells HIV-1 protection, formazan growth assay
Experiment: NCI AIDS Antiviral Assay
Conditions: for IC50: measured here: growth of uninfected CEM cells
Summary of the method: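 Category rules: moderately active means at least 50% protection on retest, and confirmed active means 100% protection reproducibly. The underlying data came from a formazan growth assay in HIV-1-infected CEM cells.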

SMILES | EC50 [µM] | IC50 [µM] | outcome
O=C(O)c1ccccc1O.OC1CCCC2CCC[N-]C12.[Cu+] (stereo unspecified) | > 200 | 0.603 | 
CN1C(=O)N(c2ccccc2)C2(CCN(CC3COc4ccccc4O3)CC2)C1=O (stereo unspecified) | > 200 | > 200 | 
CN(CCC#N)c1ccc(/C=C(\C#N)c2ccc(Cl)cc2)cc1 | > 200 | 15.5 | 
CCOc1ccc(N2CC(=O)N3CCCC(C)N3C(=O)C2)cc1 (stereo unspecified) | > 200 | 170 | 
O/N=C(\C(=N/O)Nc1ccc(-c2ccc(NC(=N/O)/C(=N\O)c3ccccc3)cc2)cc1)c1ccccc1 | > 37.2 | 30.9 | 
O=C1CCCCC/C1=C\c1cccc([N+](=O)[O-])c1 | > 200 | 23.4 | 
Cc1nc2c(nc1C)C(=O)C(Cl)=C(N)C2=O |  |  | inactive
O=S(=O)(c1ccccc1)C1CN(Cc2ccccc2)CCN(Cc2ccccc2)C1 |  |  | inactive
Cc1cc(O)ccc1N=O | > 200 | 3.39 | 
O=C(O)[C@@H](NS(=O)(=O)c1ccc([N+](=O)[O-])cc1)c1ccccc1 |  |  | inactive
CSc1ncccc1C(=O)[O][Sn]([c]1ccccc1)([c]1ccccc1)[c]1ccccc1 | > 2 | 0.316 | 
COC(=O)/C=C/C1C2C3(CCC(C)C12C)OCCS3 (stereo unspecified) | > 126 | > 126 | 
CN1C(=O)N(C)C(O)C(Cl)(Cl)C1=O (stereo unspecified) | > 200 | > 200 | 
O=C1CC2(CCC(O)(c3ccc(Cl)cc3)C(C(=O)c3ccc(Cl)cc3)C2)C(=O)c2ccccc2N1 (stereo unspecified) | > 200 | 67.6 | 
O=[N+]([O-])c1ccc(C=Cc2ccccc2)cc1.[C-]#[O+].[C-]#[O+].[C-]#[O+].[Cr] |  |  | inactive
COC(=O)c1cc(C(=O)Nc2cc(Cc3cc(NC(=O)c4ccc(OC)c(C(=O)OC)c4)c(OC)c(C(=O)OC)c3)cc(C(=O)OC)c2OC)ccc1OC | > 200 | > 200 | 
O=c1n(Cc2ccccc2)c2ccccc2n1CC1CS1 (stereo unspecified) | > 45.7 | 19.5 | 

SMILES | EC50 [µM] | IC50 [µM] | outcome
c1ccc2c(c1)-c1ccccc1C2NC1=NCCO1 | > 200 | 26.3 | 
COC(=O)C1CC2c3c(c4ccccc4n3C)CC(C1=O)N2C (stereo unspecified) |  |  | inactive
CC1N=C(SCc2ccc(Cl)cc2)N2C(C)N=C(SCc3ccc(Cl)cc3)N12 (stereo unspecified) | > 21.9 | > 21.9 | 
COc1ccc(CCNC(=O)Cc2cc(OC)c(OC)cc2CO)cc1OC | > 200 | 195 | 
CC1(C)C(=O)CC[C@@]2(C)C1CC[C@]1(C)C2CC=C2[C@@H]3C[C@](C)(C(=O)O)CC[C@]3(C)CCC21C (stereo partly specified) | > 200 | 95.5 | 
CC(C)(C)[Si](C)(C)OCC1OC(n2cnc3c(=O)[nH]c(NCc4ccccc4)nc32)C(O[Si](C)(C)C(C)(C)C)C1O[Si](C)(C)C(C)(C)C (stereo unspecified) | > 200 | 141 | 
O=c1cn[nH]c2ccc(F)cc12 | > 219 | > 219 | 
COc1ccc(-n2c(N)c(C#N)c(C#N)c2-c2ccco2)cc1 | > 200 | > 200 | 
COc1ccc(C(C)NNC(=O)c2ccncc2)cc1OC (stereo unspecified) | > 200 | 30.2 | 
Cc1c(OCc2cccc3ccccc23)ccc2c(=O)cc(SCCN3CCOCC3)oc12 |  |  | inactive
COC(=O)C1=C(C(=O)OC)SC(C(C(=O)OC)=C2SC3=C(CCCC3)S2)S1 |  |  | inactive
CC1(C)CNC[C@@](C)(O)C(=O)[N-]C(C)(C)CNC[C@](C)(O)C(=O)[N-]1.[Ni+2] | > 200 | 120 | 
CCO/C=C1\N=C(c2ccc(Cl)c(Cl)c2)OC1=O | > 126 | > 126 | 
CCC(c1ccccc1)C1NC(=S)NC1=O (stereo unspecified) | > 200 | 138 | 
CC(=O)O[C@@H]1CCN(C(=O)C(NC(=O)OC(C)(C)C)C(C)C)[C@@H]1C(O)CC(=O)O (stereo partly specified) | > 200 | > 200 | 
CC(=O)NC(NCCN)(c1ccccc1)c1ccccc1 | > 200 | > 200 | 
Cc1cn(C2CC(N=[N+]=[N-])C(CO)O2)c(=O)nc1N (stereo unspecified) | > 200 | > 200 | 
